The values below are quoted from earlier work in patent US20210069187A1, “Stable pharmaceutical composition of Selexipag” (RK Pharma Solutions LLC, priority 2019, published 2021).

Experiment in data set [1]: not given
This is another data set of the same source.

For the compound `CC(C)N(CCCCOCC(=O)NS(C)(=O)=O)c1cnc(-c2ccccc2)c(-c2ccccc2)n1` [Selexipag, 2-{4-[N-(5,6-diphenylpyrazin-2-yl)-N-isopropylamino]butyloxy}-N-(methylsulfonyl)acetamide], the solubility in water result is given as “practically insoluble”. Besides, the “stability in the solid state” value in data set [1] was “very stable”. In data set [1] (solid state), the hygroscopicity result is given as “not hygroscopic” and the light sensitivity result is recorded as “not light sensitive”.
